From US10265294B2, “Compositions and methods for treating epithelial cancer” (YALE UNIVERSITY, priority 2016, dated 2019)

Key:
[1] = system: i.p. tumors of mCherry+OCSC1-F2 ovarian cancer cells; assay: Intra-peritoneal ovarian cancer xenograft, primary disease dose response; type: in vivo, athymic nude mice
Description: The Yale University Institutional Animal Care and Use Committee approved all in vivo studies described. Intra-peritoneal tumors were established in athymic nude mice using 4×10^6 mCherry+OCSC1-F2 ovarian cancer cells (Craveiro, et al., 2013, Cancer Med. 2:751-762). […] Establishment of i.p. tumors was confirmed by live imaging (In-Vivo FX PRO, Bruker Corp., Billerica, Mass.) prior to treatment. TRX-E-002-1 was prepared in 20% Captisol or Dexsolve and administered daily at 50 mg/kg or 100 mg/kg. Paclitaxel was given at 12 mg/kg q3d and Cisplatin at 5 mg/kg weekly. All treatments were given i.p. Tumor growth was monitored q3d by live imaging and response to treatment was assessed using ROI area.
An intra-peritoneal (i.p.) recurrent ovarian cancer xenograft model established using ovarian cancer cells stably expressing mCherry fluorescence has been established. This allows the detection of i.p. tumors and real-time measurement of response during the course of treatment. This model recapitulates the clinical profile typically seen in patients with ovarian cancer and helps one answer three questions: (1) in vivo activity of TRX-E-002-1 against primary disease; (2) ability of TRX-E-002-1 given in combination with chemotherapy to prevent/delay recurrence; and (3) ability of TRX-E-002-1 given as maintenance after chemotherapy to prevent/delay recurrence.
To determine activity against primary disease as well as to determine the maximum tolerated dose (MTD), a dose response study was performed. […] Animals however recovered from the distension upon cessation of treatment. […] Thus, the MTD was established at daily 100 mg/kg i.p. and this dose was employed for the succeeding studies employing combination treatment.

[2] = system: OCC1 (CD44-/MyD88- ovarian cancer cells); assay: IC50 against chemosensitive ovarian cancer cells OCC1; type: cell-based, human; details: read-out: IC50 (percentage of viable cells)
Description: CD44+/MyD88+ ovarian cancer stem cell clones (OCSC1 and OCSC2) and CD44−/MyD88− ovarian cancer cells (OCC1 and OCC2) were isolated from either tumor tissue or ascites obtained from patients diagnosed with stage III/IV serous ovarian cancer and propagated (Alvero, et al., 2009, Cell Cycle 8:158-166; Chefetz, et al., 2013, Cell Cycle 12:511-521). The epithelial nature of the isolated cells was determined by immunostaining for Ck18. Purity of the cultures based on CD44 expression by flow cytometry and chemoresistance were routinely tested. […]
(§1) Effect of each compound on cell morphology, growth, and viability was assessed using a kinetic live cell imaging system (Incucyte, Essen Bioscience). Proliferation was calculated as previously described (Alvero, et al., 2011, Mol. Cancer Ther. 10:1385-1393) using metrics from either confluence or fluorescent count from nuclear-restricted RFP or GFP. Cell death was quantified; similarly CELLTOX® Green Cytotoxicity Assay (Promega, Madison, Wis.). IC50 was calculated as described using GraphPad Prism (GraphPad Software Inc., LaJolla, Calif.).
Once the efficacy of TRX-E-002-1 against chemoresistant OCSC was established, its activity against two clones of chemosensitive ovarian cancer cells (OCC1 and OCC2) was determined.

[3] = system: co-culture of RFP-labeled OCSC2 and GFP-labeled OCC2; assay: In vitro co-culture model 50% RFP-OCSC2 / 50% GFP-OCC2; type: cell-based; details: co-culture 50/50; TRX-E-002-1 0.12 μM, Cisplatin 20 μM
Description: CD44+/MyD88+ ovarian cancer stem cell clones (OCSC1 and OCSC2) and CD44−/MyD88− ovarian cancer cells (OCC1 and OCC2) were isolated from either tumor tissue or ascites obtained from patients diagnosed with stage III/IV serous ovarian cancer and propagated (Alvero, et al., 2009, Cell Cycle 8:158-166; Chefetz, et al., 2013, Cell Cycle 12:511-521). The epithelial nature of the isolated cells was determined by immunostaining for Ck18. Purity of the cultures based on CD44 expression by flow cytometry and chemoresistance were routinely tested. Stable expression of nuclear-restricted red fluorescent (in OCSCs) or green fluorescent proteins (in OCCs) was performed by transduction using NUCLIGHT® Red or Green Lentivirus Reagent (Essen Bioscience, Ann Arbor, Mich.). Spheroids were formed from OCSCs by culturing in ultra-low attachment multi-well plates (Corning, Inc., Corning, N.Y.).
as §1
Without wishing to be limited by any theory, response to chemotherapy may be modified by cross-talk among different cancer cell types within the tumor. Thus, to mimic the heterogeneity of ovarian tumors an in vitro co-culture model consisting of RFP-labeled chemoresistant OCSC2 and GFP-labeled chemosensitive OCC2 was used. The co-cultures, which are comprised of 50% RFP-OCSC2 and 50% GFP-OCC2 at time of treatment, were exposed to TRX-E-002-1, cisplatin, or the combination of both. Since GFP-OCC2 has faster doubling time than RFP-OCSC2, it overtook the control co-cultures by the end of the experiment and thus the control co-cultures are mainly comprised of GFP-OCC2 by the 24 h time-point (FIG. 2B).

SMILES: COc1cc(C2COc3c(ccc(O)c3C)C2c2ccc(O)cc2)cc(OC)c1O (single isomer, unassigned) [TRX-E-002-1]
- tumor burden compared to vehicle control ([1]; 50 mg/kg daily i.p., starting at day 14): significant reduction
- residual disease at completion of the treatment ([1]; 100 mg/kg daily i.p.): very little residual disease
- p-c-Jun and total c-Jun in residual tumors ([1]; 100 mg/kg daily i.p., Western blot): upregulation
- tumor burden compared to vehicle control ([1]; 100 mg/kg daily i.p., starting at day 10): significant reduction
- tumor burden ([1]; 150 mg/kg i.p. three times weekly, by the 10th dose): significant decrease
- IC50 [2]: 0.068 µM
- number of GFP+ cells (GFP-OCC2) [3]: markedly reduced
- number of mCherry+ cells (RFP-OCSC2) [3]: markedly reduced
